US7572438B2, “Mutant having uracil phosphoribosyl transferase activity” (Transgene S.A., priority 1998, dated 2009)

Legend:
SK-BR-3 = assay: LD50 of 5-FC and 5-FU on adenovirus-infected SK-BR-3 cells (MOI 5); type: cell-based, human; conditions: SK-BR-3, mock-infected, 6 days
Procedure: (§1) The LD50 values for 5-FC and 5-FU are determined vis-a-vis the three human tumor cell lines infected with the different viruses (Ad null, Ad.CMV-FCY1, Ad.CMV-FUR1A1Δ105 and Ad.CMV-FCU1) or coinfected with the adenoviruses expressing the FCY1 and FUR1Δ105 genes. The cells are infected at an MOI of 5 and then cultured in the presence of different concentrations of 5-FC and 5-FU. After 6 days of culture, the viability of the cells is determined using trypan blue. The LD50 values listed in Table 6 are the means of four counts.

PANC-1 = assay: LD50 of 5-FC and 5-FU on adenovirus-infected PANC-1 cells (MOI 5); type: cell-based, human; conditions: PANC-1, mock-infected, 6 days
Procedure: as §1

SW480 = assay: LD50 of 5-FC and 5-FU on adenovirus-infected SW480 cells (MOI 5); type: cell-based, human; conditions: 6 days
Procedure: as §1

B16(F0) cells [1] = assay: Bystander effect: mixtures of untransfected and pCI-neoFCU1-transfected B16(F0) clones with 5-FC; type: cell-based, mouse; conditions: B16/B16 pCI-neoFCU1 100%/0%, 4 days
Procedure: These clone mixtures were then tested in the presence of different concentrations of 5-FC. Cell mortality (using trypan blue) is assessed after culturing for 4 days in the presence of 5-FC.

B16(F0) cells [2] = assay: Sensitivity of transfected B16(F0) clones to 5-FC and 5-FU (LD50, trypan blue); type: cell-based, mouse; conditions: 6 days with drug
Procedure: The sensitivities of the different clones to 5-FC and 5-FU are also tested after incubating in the presence of the drugs for 6 days. The following values are the means of four counts (using trypan blue) of cell mortality.

SMILES | LD50 (μM) 5-FU, Mock (SK-BR-3) [µM] | LD50 (μM) 5-FU, Mock (PANC-1) [µM] | LD50 (μM) 5-FU, Mock (SW480) [µM] | LD50 (μM) 5-FC, Mock (SK-BR-3) [µM] | LD50 (μM) + 5-FC (B16(F0) cells [1]) [µM] | LD50 for 5-FC, untransfected cells (B16(F0) cells [2]) [µM] | LD50 (μM) 5-FC, Mock (PANC-1) | LD50 (μM) 5-FC, Mock (SW480) [µM]
O=c1[nH]cc(F)c(=O)[nH]1 [5-FU, 5-fluorouracil] | 0.1 | 0.3 | 0.5 | – | – | – | – | –
Nc1nc(=O)[nH]cc1F [5-FC, 5-fluorocytosine] | – | – | – | 5000 | 5000 | 1000 | 10,000 μM | 5000
